Values quoted from earlier work as cited in PubChem BioAssay AID1259409 (Chemical Carcinogenesis Research Information System (CCRIS), 2018).

Tested on: rodent chemically induced tumor inhibition, incidence and multiplicity
Test: CCRIS tumor inhibitor studies
Conditions: Dose [Inhibitor]: 0

SMILES: O=c1oc2c(O)c(O)cc3c(=O)oc4c(O)c(O)cc1c4c23
- tumour outcome (control, treated, inhibition, significance) (Carcinogen: AZOXYMETHANE, 25843-45-2, 4000 PPM IN DIET BEGINNING PRIOR TO CARCINOGEN DOSE AND CONTINUING FOR DURATION OF STUDY (STUDY DURATION: 54 WK), Route [Inhibitor]: ORAL, Species: RAT, Strain/Sex: F344/MALE, Target Tissue: Type of Lesion: SMALL INTESTINE: ADENOCARCINOMA, Dose [Carcinogen]: 15 MG/KG 1/WK FOR 2 WK, Promoter: NONE USED): 50%, 36%, 28%, not calculated
- tumour outcome (control, treated, inhibition, significance) (Carcinogen: AZOXYMETHANE, 25843-45-2, 4000 PPM IN DIET BEGINNING PRIOR TO CARCINOGEN DOSE AND CONTINUING FOR DURATION OF STUDY (STUDY DURATION: 54 WK), Route [Inhibitor]: ORAL, Species: RAT, Strain/Sex: F344/MALE, Target Tissue: Type of Lesion: SMALL INTESTINE: ADENOMA, Dose [Carcinogen]: 15 MG/KG 1/WK FOR 2 WK, Promoter: NONE USED): 3%, 0%, 100%, not calculated
- tumour outcome (control, treated, inhibition, significance) (Carcinogen: AZOXYMETHANE, 25843-45-2, 4000 PPM IN DIET FOR 56 WK BEGINNING 2 WK PRIOR TO CARCINOGEN TREATMENT (STUDY DURATION: 56 WK), Route [Inhibitor]: ORAL, Species: RAT, Strain/Sex: F344/MALE, Target Tissue: Type of Lesion: COLON (DISTAL): TUMOR, Dose [Carcinogen]: 15 MG/KG 1/WK FOR 2 WK, Promoter: NONE USED): 47%, 47%, 0%, not significant
- tumour outcome (control, treated, inhibition, significance) (Carcinogen: AZOXYMETHANE, 25843-45-2, 4000 PPM IN DIET FOR 56 WK BEGINNING 2 WK PRIOR TO CARCINOGEN TREATMENT (STUDY DURATION: 56 WK), Route [Inhibitor]: ORAL, Species: RAT, Strain/Sex: F344/MALE, Target Tissue: Type of Lesion: COLON (PROXIMAL): TUMOR, Dose [Carcinogen]: 15 MG/KG 1/WK FOR 2 WK, Promoter: NONE): 39%, 44%, -13%, not significant
- tumour outcome (control, treated, inhibition, significance) (Carcinogen: AZOXYMETHANE, 25843-45-2, 8000 PPM IN DIET BEGINNING PRIOR TO CARCINOGEN DOSE AND CONTINUING FOR DURATION OF STUDY (STUDY DURATION: 54 WK), Route [Inhibitor]: ORAL, Species: RAT, Strain/Sex: F344/MALE, Target Tissue: Type of Lesion: COLON: ADENOCARCINOMA, Dose [Carcinogen]: 15 MG/KG 1/WK FOR 2 WK, Promoter: NONE USED): 72%, 64%, 11%, not calculated
- tumour outcome (control, treated, inhibition, significance) (Carcinogen: AZOXYMETHANE, 25843-45-2, 8000 PPM IN DIET BEGINNING PRIOR TO CARCINOGEN DOSE AND CONTINUING FOR DURATION OF STUDY (STUDY DURATION: 54 WK), Route [Inhibitor]: ORAL, Species: RAT, Strain/Sex: F344/MALE, Target Tissue: Type of Lesion: COLON: ADENOMA, Dose [Carcinogen]: 15 MG/KG 1/WK FOR 2 WK, Promoter: NONE USED): 14%, 3%, 76%, not calculated
- tumour outcome (control, treated, inhibition, significance) (Carcinogen: AZOXYMETHANE, 25843-45-2, 8000 PPM IN DIET BEGINNING PRIOR TO CARCINOGEN DOSE AND CONTINUING FOR DURATION OF STUDY (STUDY DURATION: 54 WK), Route [Inhibitor]: ORAL, Species: RAT, Strain/Sex: F344/MALE, Target Tissue: Type of Lesion: SMALL INTESTINE: ADENOCARCINOMA, Dose [Carcinogen]: 15 MG/KG 1/WK FOR 2 WK, Promoter: NONE USED): 50%, 28%, 44%, not calculated
- tumour outcome (control, treated, inhibition, significance) (Carcinogen: AZOXYMETHANE, 25843-45-2, 8000 PPM IN DIET BEGINNING PRIOR TO CARCINOGEN DOSE AND CONTINUING FOR DURATION OF STUDY (STUDY DURATION: 54 WK), Route [Inhibitor]: ORAL, Species: RAT, Strain/Sex: F344/MALE, Target Tissue: Type of Lesion: SMALL INTESTINE: ADENOMA, Dose [Carcinogen]: 15 MG/KG 1/WK FOR 2 WK, Promoter: NONE USED): 3%, 0%, 100%, not calculated
- tumour outcome (control, treated, inhibition, significance) (Carcinogen: AZOXYMETHANE, 25843-45-2, 8000 PPM IN DIET FOR 56 WK BEGINNING 2 WK PRIOR TO CARCINOGEN TREATMENT (STUDY DURATION: 56 WK), Route [Inhibitor]: ORAL, Species: RAT, Strain/Sex: F344/MALE, Target Tissue: Type of Lesion: COLON(DISTAL): TUMOR, Dose [Carcinogen]: 15 MG/KG 1/WK FOR 2 WK, Promoter: NONE USED): 47%, 47%, 0%, not significant
- tumour outcome (control, treated, inhibition, significance) (Carcinogen: AZOXYMETHANE, 25843-45-2, 8000 PPM IN DIET FOR 56 WK BEGINNING 2 WK PRIOR TO CARCINOGEN TREATMENT (STUDY DURATION: 56 WK), Route [Inhibitor]: ORAL, Species: RAT, Strain/Sex: F344/MALE, Target Tissue: Type of Lesion: COLON(PROXIMAL): TUMOR, Dose [Carcinogen]: 15 MG/KG 1/WK FOR 2 WK, Promoter: NONE USED): 39%, 30%, 23%, not significant
- tumour outcome (control, treated, inhibition, significance) (Carcinogen: BENZO[A]PYRENE, 50-32-8, 300 NMOL (TOTAL DOSE) APPLIED 10 MIN PRIOR TO CARCINOGEN DOSE INJECTED AS 1/7, 2/7, AND 4/7 OF THE TOTAL ON DAYS 1, 8, Route [Inhibitor]: INTRAPERITONEAL, Species: MOUSE, Strain/Sex: ICR/MALE, FEMALE, Target Tissue: Type of Lesion: LUNG: TUMOR, Dose [Carcinogen]: 450 NMOL (TOTAL DOSE) INJECTED IN DOSES OF 1/7, 2/7, AND 4/7 ON DAYS 1, 8, AND 15 OF LIFE, RESPECTIVELY, Promoter: NONE USED): 74%, 75%, -1%, not significant
